Data published in patent US20070191349A1, “C8, c8' linked 5-oxo-1,2,3,11a-tetrahydro-5h-pyrrolo[2,1-c][1,4] benzodiazepine dimers with 1h-pyrrole-dicarboxylic acid amide linkers and oligomeric analogs therof as well as related compounds for the treatment of proliferative diseases” (SPIROGEN LIMITED, priority 2004, published 2007).
Read-outs that look alike come from different tables or passages of the source.

Legend:
[1] = tested on: K562 human chronic myeloid leukaemia cells; test: In vitro cytotoxicity, K562 cells, MTT assay; format: cell-based; details: 1 h drug exposure, MTT after 4 days
Experimental: K562 human chronic myeloid leukaemia cells were maintained in RPM1 1640 medium supplemented with 10% fetal calf serum and 2 mM glutamine at 37° C. in a humidified atmosphere containing 5% CO2 and were incubated with a specified dose of drug for 1 h at 37° C. in the dark. The incubation was terminated by centrifugation (5 min, 300 g) and the cells were washed once with drug-free medium. Following the appropriate drug treatment, the cells were transferred to 96-well microtiter plates (10^4 cells per well, 8 wells per sample). Plates were then kept in the dark at 37° C. in a humidified atmosphere containing 5% CO2. The assay is based on the ability of viable cells to reduce a yellow soluble tetrazolium salt, 3-(4,5-dimethylthiazol-2-yl)-2,5-diphenyl-2H-tetrazolium bromide (MTT, Aldrich-Sigma), to an insoluble purple formazan precipitate. Following incubation of the plates for 4 days (to allow control cells to increase in number by approximately 10 fold), 20 μL of MTT solution (5 mg/mL in phosphate-buffered saline) was added to each well and the plates further incubated for 5 h. The plates were then centrifuged for 5 min at 300 g and the bulk of the medium pipetted from the cell pellet leaving 10-20 μL per well. DMSO (200 μL) was added to each well and the samples agitated to ensure complete mixing. The optical density was then read at a wavelength of 550 nm on a Titertek Multiscan ELISA plate reader, and a dose-response curve was constructed. For each curve, an IC50 value was read as the dose required to reduce the final optical density to 50% of the control value.

[2] = tested on: linear pBR322 DNA; test: DNA cross-linking, electrophoretic assay (Hartley et al.); format: biochemical; details: 2 h at 37° C., pH 7.2
Experimental: The extent of DNA cross-linking induced by each PBD dimer was determined using the electrophoretic assay method of Hartley, et al. (Hartley, J. A., Berardini, M. D., and Souhami, R. L. (1991) Anal. Biochem. 193, 131-134) based on the principle that, following complete denaturation of linear pBR322 DNA (˜4,300 bp) to the single-stranded (SS) form, an interstrand cross-link results in renaturation to double-stranded (DS) in a neutral gel.
Closed-circular DNA was linearized with HindIII, then dephosphorylated and finally 5′-singly end-labelled using [γ^32P]-ATP and polynucleotide kinase. Reactions containing 30-40 ng of DNA and the test compound were carried out in aqueous TEOA (25 mM triethanolamine, 1 mM EDTA, pH 7.2) buffer at 37° C. in a final volume of 50 μl for 2 h. Reactions were terminated by addition of an equal volume of stop solution (0.6 M NaOAc, 20 mM EDTA, 100 μg/ml tRNA) followed by precipitation with ethanol. Following centrifugation, the supernatant was discarded and the pellet dried by lyophilization. […] Control non-denatured samples were re-suspended in 10 μl of non-denaturing buffer solution (0.6% sucrose, 0.04% bromophenol blue in aqueous TAE buffer [40 mM Tris, 20 mM acetic acid, 2 mM EDTA, pH 8.1]) and loaded directly onto the gel for comparison.
Electrophoresis was carried out for 14-16 h at 40 V using a 0.8% submerged agarose gel (20×25×0.5 cm) in TAE buffer. Gels were dried under vacuum for 2 h at 80° C. onto one layer each of Whatman 3MM and DE8I filter papers using a BioRad 583 gel dryer. Autoradiographs were obtained after exposure of Hyperfilm-MP film (Amersham plc, U.K.) to the dried gel for either 4 h with a screen (or over night, without a screen, to obtain a sharper image). Film bands were quantitated using a BioRad GS-670 imaging laser densitometer. Percentage cross-linking was calculated by measuring the total DNA in each lane (summed density for the double-stranded [DS] and single-stranded [SS] bands) relative to the amount of cross-linked DNA (density of DS band alone). A dose-response curve was derived by plotting drug concentration against the determined percentage level of cross-linked DNA which was then analysed to determine the concentration of test compound that results in 50% cross-linked plasmid DNA (XL50).

[3] = tested on: approximately 60 human tumour cell lines; test: NCI60 cell screen, in vitro cytotoxicity, SRB assay; format: cell-based; details: NCI 60 human tumour cell lines, 48 h continuous exposure
Experimental: The National Cancer Institute (NCI), Bethesda, Md., USA has available an in vitro cytotoxicity screen which consists of approximately 60 human tumour cell lines against which compounds are tested at a minimum of five concentrations each differing 10-fold. A 48 h continuous exposure protocol is used, where cell viability or growth is estimated with an SRB protein assay.
The test compounds were evaluated against approximately 60 human tumour cell lines. The NCI screening procedures were described in detail by Monks and co-workers (Monks, A et al., Journal of the National Cancer Institute, 1991, 83, 757). Briefly, cell suspensions were diluted according to the particular cell type and the expected target cell density (5000-40,000 cells per well based on cell growth characteristics), and added by pipette (100 μL) into 96-well microtitre plates. The cells were allowed a preincubation period of 24 h at 37° C. for stabilisation. Dilutions at twice the intended test concentration were added at time zero in 100 μL aliquots to the wells. The test compounds were evaluated at five 10-fold dilutions (10^−4, 10^−5, 10^−6, 10^−7 and 10^−[…]). The test compounds were incubated for 48 h in 5% CO2 atmosphere and 100% humidity. The cells were then assayed using the sulphorhodamine B assay. A plate reader was used to read the optical densities and a microcomputer processed the readings into GI50 values (in Moles), which is the dosage required to limit cell growth to 50%.

[4] = Alkali, read-out: XL50 (concentration that results in 50% cross-linked plasmid DNA), Alkali
[5] = Heat, read-out: XL50 (concentration that results in 50% cross-linked plasmid DNA), Heat

COc1cc2c(cc1NC(=O)c1ccc(C(=O)Nc3cc4c(cc3OC)C(=O)N3CCC[C@H]3C=N4)n1C)N=C[C@@H]1CCCN1C2=O [(1) SJG-605, 1-Methyl-1H-pyrrole-2,5-dicarboxylic acid bis-[(11aS)(7-methoxy-5-oxo-1,2,3,11a-tetrahydro-5H-pyrrolo[2,1-c][1,4]benzodiazepin-8-yl)-amide]]
IC50 [1]: 1200 nM
EC50 [2, 4]: 1300 nM
GI50 [3]: 1000 nM

COc1cc2c(cc1NC(=O)c1cc(C(=O)Nc3cc4c(cc3OC)C(=O)N3CCC[C@H]3C=N4)n(C)c1)N=C[C@@H]1CCCN1C2=O [(2) SJG-604, 1-Methyl-1H-pyrrole-2,4-dicarboxylic acid bis-[(11aS)(7-methoxy-5-oxo-1,2,3,11a-tetrahydro-5H-pyrrolo[2,1-c][1,4]benzodiazepin-8-yl)-amide]]
IC50 [1]: 23000 nM
EC50 [2, 4]: 3500 nM
GI50 [3]: 31600 nM

COc1cc2c(cc1OCCCNC(=O)c1ccc(C(=O)NCCCOc3cc4c(cc3OC)C(=O)N3CCC[C@H]3C=N4)n1C)N=C[C@@H]1CCCN1C2=O [(13) AT-217]
EC50 [2, 4]: 350 nM
EC50 [2, 5]: 3800 nM
GI50 [3]: 19000 nM

COc1cc2c(cc1OCCCC(=O)Nc1cc(C(=O)NCCCNC(=O)c3cc(NC(=O)CCCOc4cc5c(cc4OC)C(=O)N4CCC[C@H]4C=N5)cn3C)n(C)c1)N=C[C@@H]1CCCN1C2=O [(15) AT-281]
IC50 [1]: 340 nM
GI50 [3]: 10 nM

COc1cc2c(cc1OCCCNC(=O)c1cc(NC(=O)c3cc(NC(=O)c4cc(NC(=O)CCCOc5cc6c(cc5OC)C(=O)N5CCC[C@H]5C=N6)cn4C)cn3C)cn1C)N=C[C@@H]1CCCN1C2=O [(18) AT-235]
IC50 [1]: 1510 nM
EC50 [2, 4]: < 100 nM
EC50 [2, 5]: 230 nM
GI50 [3]: 10 nM
